According to US12558354B2, “Tumor necrosis factor alpha (TNF-alpha) small molecule inhibitor” (AJOU UNIVERSITY INDUSTRY-ACADEMIC COOPERATION FOUNDATION, priority 2019, dated 2026):
“Also recorded” adds a separate entry of the source.

Key:
TNF-α = TNF-α (Homo sapiens, UniProt P01375); details: target TNF-α, literature; cited from earlier work
TNFRI = target: T1, TNFRI (Homo sapiens, UniProt P19438); details: target TNFRI, literature; cited from earlier work
T1 sequence (P19438 30-455): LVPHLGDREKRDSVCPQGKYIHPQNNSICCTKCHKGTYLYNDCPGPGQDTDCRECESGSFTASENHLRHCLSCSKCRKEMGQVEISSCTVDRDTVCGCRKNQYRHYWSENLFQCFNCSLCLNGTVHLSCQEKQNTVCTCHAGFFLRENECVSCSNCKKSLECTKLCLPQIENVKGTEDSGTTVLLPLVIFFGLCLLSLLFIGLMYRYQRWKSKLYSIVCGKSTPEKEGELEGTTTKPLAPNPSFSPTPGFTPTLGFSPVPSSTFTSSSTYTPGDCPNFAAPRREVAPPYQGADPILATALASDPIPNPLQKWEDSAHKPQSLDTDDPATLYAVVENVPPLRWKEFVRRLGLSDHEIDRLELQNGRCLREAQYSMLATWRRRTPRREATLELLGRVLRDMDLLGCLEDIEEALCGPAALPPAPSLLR

[1] = target: T2, recombinant human TNF-α (rhTNF-α) (Homo sapiens, UniProt P01375); assay: TNF-α-mediated hIL-8 secretion in HDFs (ELISA); assay type: cell-based; details: 24 hours
T2 construct: purchased Miltenyi Biotec
T2 sequence (P01375 77-233 limits assumed): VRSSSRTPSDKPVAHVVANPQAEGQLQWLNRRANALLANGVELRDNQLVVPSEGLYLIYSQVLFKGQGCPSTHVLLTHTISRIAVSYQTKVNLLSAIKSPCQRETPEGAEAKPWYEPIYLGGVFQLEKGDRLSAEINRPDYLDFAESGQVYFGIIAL
Procedure: (§1) HDFs were seeded at a density of 10^4/well in a 96-well plate (BD Biosciences) and grown overnight. The cells were treated for 24 hours with a 1-hour-pre-incubated mixture of rhTNF-α and test compounds. IL-8 secretion was assessed by a human IL-8 uncoated ELISA kit (eBioscience, Inc., San Diego, CA, USA), and IL-6 secretion level was assessed by a human IL-6 ELISA MAX™ Deluxe kit (BioLegend, San Diego, CA, USA). The microtiter plates were then analyzed at an appropriate wavelength using a microplate spectrophotometer system (Molecular Devices, Silicon Valley, California).

[2] = target: T3, recombinant mouse TNF-α homotrimer (Mus musculus, UniProt P06804); assay: Dissociation of TNF-α trimerization assembly (cross-linking, Western blot), mouse; assay type: biochemical; details: cross-linked with BS3, Western blot
T3 construct: purchased Miltenyi Biotec
T3 sequence (P06804 80-235 limits assumed): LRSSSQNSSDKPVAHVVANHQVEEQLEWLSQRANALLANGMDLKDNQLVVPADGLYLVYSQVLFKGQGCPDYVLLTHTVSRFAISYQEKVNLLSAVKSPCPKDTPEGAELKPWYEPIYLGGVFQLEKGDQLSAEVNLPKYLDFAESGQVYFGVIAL
Procedure: (§2) Inhibitors were incubated with 100 ng of recombinant TNF-α at 37° C. for 1 hour and then cross-linked with 4.8 mM BS3 (Thermo Fisher Scientific, Inc.) at room temperature for 30 minutes. Then, a 1/10 volume of 1 M Tris-HCl (pH 7.5) was added to stop the reaction. Thereafter, samples were separated by SDS-PAGE, followed by Western blotting with anti-TNF-α antibody (Cell Signaling Technology Inc.).

[3] = target: T2, recombinant human TNF-α (rhTNF-α); assay: Cell death attenuation assay, act-D-sensitized HDFs with rhTNF-α; assay type: cell-based
Procedure: (§3) HDFs (10^4/well) and L929 cell lines (1.5×10^4/well) were seeded in 96-well plates and grown overnight under appropriate conditions. The next day, HDFs and L929 cells were pretreated with 1 μg/ml act-D and 0.1 μg/ml act-D, respectively, followed by incubated for 30 minutes. Thereafter, a 1-hour-preincubated mixture of 10 ng/ml rhTNFα with test compounds or 1 ng/ml rmTNFα with test compounds, was applied to HDFs and L929 cells, respectively. The cells were incubated for 24 hours post-treatment, and survival was measured by the MTT assay. Cell viability was calculated with reference to the no-treatment control group. The obtained values were normalized with respect to the act-D treatment group and then used to calculate death attenuation (%) rate using the following equation: […]

[4] = target: T4, recombinant mouse TNF-α (rmTNF-α) (Mus musculus, UniProt P06804); assay: Cell death attenuation assay, act-D-sensitized L929 cells with rmTNF-α; assay type: cell-based
T4 construct: purchased Miltenyi Biotec
T4 sequence (P06804 80-235 limits assumed): T3 sequence (P06804 80-235 limits assumed)
Procedure: as §3

[5] = test system: TNF-α-dependent signaling pathways (NF-κB, MAPKs, caspases 3 and 8); assay: Western blot of TNF-α-dependent signaling pathways in L929 cells; assay type: cell-based, mouse
Procedure: Total protein was extracted from the treated cells using an M-PER mammalian protein extraction reagent (Thermo Fisher Scientific, Inc.). The cell pellets were dissolved in a mixture of M-PER with protease and phosphatase inhibitor cocktail (Thermo Fisher Scientific, Inc.) at 4° C. for 1 minute, and the lysate thus obtained was centrifuged at 16,000×g and 4° C. for 10 minutes. The supernatant containing the protein was collected in a separate Eppendorf tube, and a BCA assay (Sigma-Aldrich) was performed for protein quantification. 20 Hg of a protein sample was placed in a 10-12% polyacrylamide gel (containing SDS), and the separated protein was transferred to a nitrocellulose membrane (HYBOND ECL™; Amersham Pharmacia Biotech Inc, Piscataway, New Jersey) of a mini-PROTEAN tetra cell and mini trans-blot electrophoretic transfer cell system (Bio-Rad Laboratories). Membrane blocking was performed with 5% nonfat dried milk for 1 hour. The membrane was subjected to immunoblotting through gentle shaking overnight at a temperature of 4° C. with certain primary antibodies, i.e. antibodies to (phospho-)p-p65, p-JNK, JNK, p-ERK, ERK, cleaved caspase 3 (Cell Signaling Technology Inc., Danvers, MA, USA), p-p38, caspase 8, and β-actin (Santa Cruz Biotechnology Inc., Dallas, TX, USA). The next day, after rigorous washing with PBST, the membrane was incubated with peroxidase-conjugated anti-mouse or anti-rabbit IgG antibodies at room temperature for 2 hours. Protein was detected using a SuperSignal West Pico ECL solution (Thermo Fisher Scientific, Inc.) and visualized with a CHEMIDOC™ Touch Imaging System (Bio-Rad Laboratories).

[6] = test system: human dermal fibroblasts (HDFs); assay: Cell viability (MTT) assay in human dermal fibroblasts; assay type: cell-based; details: 24 hours
Procedure: (§4) FIG. 8A is a graph showing the effects of TIM1 and a solvent thereof, DMSO, on the viability of human dermal fibroblasts, in which cells (10^4/well) were treated with DMSO at 3 different concentrations (0.5, 1, and 2%) and TIM1 at 8 different concentrations (1, 3.125, 6.25, 12.5, 25, 50, 100, and 200 μM) for 24 hours, and the cell viability was monitored by an MTT assay. FIG. 8B is a graph showing the effect of TIM1 on the viability of a mouse fibrosarcoma cell line [L929 (1.5×10^4/well)] under the same conditions as in FIG. 8A. All experiments were independently performed 4 times, and mean±SEM of the independent experiments was calculated using a two-tailed paired Student's t-test (*P<0.05).
(§5) In order to measure cell viability, a colorimetric […] (MTT) assay (Sigma-Aldrich Co.) was performed. HDFs were seeded at a density of 10^4/well in 96-well plates (BD Biosciences, San Jose, CA, USA), grown overnight, and then treated with a test compound at various concentrations for 24 hours. The next day, the medium was replaced with a medium (100 μl/well) containing a 10% MTT solution, followed by incubated at 37° C. for 3 hours. This solution was replaced with DMSO (100 μl/well), and the plates were incubated at room temperature for 30 minutes. Thereafter, the plates were read at a wavelength of 540 nm using a microplate spectrophotometer system (Molecular Devices, Silicon Valley, California).

[7] = test system: murine fibrosarcoma cell line L929; assay: Cell viability (MTT) assay in L929 cells; assay type: cell-based; details: L929, up to 200 μM, 24 hours
Procedure: as §4
as §5, with “This solution was replaced with DMSO (100 μl/well), and the plates were incubated at room temperature for 30 minutes.” left out

[8] = target: T2, recombinant human TNF-α (rhTNF-α); assay: TNF-α-mediated hIL-6 secretion in HDFs (ELISA); assay type: cell-based; details: 24 hours
Procedure: as §1

[9] = target: T5, recombinant human TNF-α homotrimer (Homo sapiens, UniProt P01375); assay: Dissociation of TNF-α trimerization assembly (cross-linking, Western blot), human; assay type: biochemical; details: cross-linked with BS3, Western blot
T5 construct: purchased Miltenyi Biotec
T5 sequence (P01375 77-233 limits assumed): as the sequence (P01375 77-233 limits assumed) above
Procedure: as §2

[10] = HDFs, rhTNF-α 1 ng/ml pre-incubated 1 hour
[11] = L929, 20 μM, rmTNF-α 1 ng/ml, 5-30 minutes

TNF-α, sequence (P01375 77-233 limits assumed, species assumed): as the sequence (P01375 77-233 limits assumed) above

Compound: O=C1Sc2c(S(=O)(=O)Nc3ccc(O)cc3)cc(S(=O)(=O)Nc3ccc(O)cc3)c3cccc1c23 [AP-906/41640035]
- IC50 (TNF-α): 14 µM

Compound: Physcion-8-O-β-D-monoglucoside
- Kd (TNFRI): 0.376 µM

Compound: C#Cc1cccc(Nc2nc(-c3cc(C)n(NC(=O)c4nn(C)c(=O)c5ccccc45)c3C)cs2)c1 [TIM1, N-(3-{2-[(3-ethynylphenyl)amino]-1,3-thiazol-4-yl}-2,5-dimethylpyrrol-1-yl)-3-methyl-4-oxophthalazine-1-carboxamide]
- inhibition of TNF-α-mediated hIL-8 secretion ([1]; HDFs, 1, 10, 50 and 100 μM): inhibited TNF-α-mediated secretion
- IC50 [1, 10]: 16.7 µM
- formation of functional homotrimers, rmTNF-α [2]: inhibited the formation of functional homotrimers
- IC50 [3]: 26.2 µM
- attenuation of TNF-α-induced apoptosis ([3]; act-D-sensitized HDFs, rhTNF-α 10 ng/ml, 1-100 μM): Significant attenuation
- IC50 [4]: 24.9 µM
- inhibition of rmTNF-α-mediated proapoptotic pathway / cell death ([4]; act-D-sensitized L929, rmTNF-α 1 ng/ml, 1-100 μM): inhibited the rmTNF-α-mediated proapoptotic pathway in L929 cells in a concentration-dependent manner
- TNF-α-mediated phosphorylation of the p65 subunit (NF-κB) [5, 11]: attenuated
- phosphorylation of MAPKs (p38 MAPK, JNK, ERK) [5, 11]: inhibited
- formation of cleaved active caspases 3 and 8 ([5]; L929, TNF-α stimulation): blocked
- lethality / cytotoxicity at increasing concentrations ([6]; HDF, up to 200 μM): no lethality; also recorded: does not show cytotoxicity up to 200 μM
- cytotoxicity (cell viability, MTT assay) ([6]; HDFs): no cytotoxicity up to a concentration of 50 μM; also recorded: did not exhibit cytotoxicity even at high concentrations (up to 100 μM)
- lethality at increasing concentrations [7]: no lethality
- inhibition of TNF-α-mediated hIL-6 secretion ([8]; HDFs, 1, 10, 50 and 100 μM): inhibited TNF-α-mediated secretion
- IC50 [8, 10]: 6.3 µM
- formation of functional homotrimers, rhTNF-α [9]: inhibited the formation of functional homotrimers
